Reference: patent publication US20060211697A1, “2-(2 Or 4-substituted aryloxy)-phenol derivatives as antibacterial agents” (priority 2004, published 2006)
Values after ≈ are worked out from the molar mass of the structure shown.

Columns and labels:
[1] = test system: E. coli 43888; experiment: MIC, broth dilution method, E. coli; assay type: cell-based; settings: Escherichia coli, 43888; Gram-negative bacteria; in vitro, broth dilution; read-out: MIC E. coli 43888
Procedure: (§1) Minimum Inhibition Concentration (MIC), Broth Dilution Method:
(§2) The compounds of the present invention were tested against an assortment of Gram positive and Gram negative organisms using standard microtitration techniques well known to those skilled in the art. Cultures of bacteria are initially brought up from the freezer by streaking a loopful onto agar plates under the appropriate conditions. For instance bacterial stocks are streaked onto chocolate agar and then incubated for 18 hours at 35-37° C. in a 5% CO2 incubator. Five to ten colonies are picked from the chocolate agar plate for subculture to Brain-Heart infusion (BHI) broth, Mueller Hinton broth, or BHI containing 4% serum and incubated under the appropriate conditions. The ability of the test compound to act as an antimicrobial is determined by the ability to inhibit bacterial growth in vitro. The optical density of the culture of organisms in the presence of an active compound is compared to the optical density of the same organism untreated. The activity of the compounds is described as either negative or the lowest concentration inhibiting growth (Minimum Inhibitory Concentration [MIC]).

[2] = test system: H. influenzae 43095; experiment: MIC, broth dilution method, H. influenzae; assay type: cell-based; settings: Haemophilus influenzae, 43095; Gram-negative bacteria; in vitro, broth dilution; read-out: MIC H. influenzae 43095
Procedure: as §1, §2

[3] = test system: S. aureus 29213; experiment: MIC, broth dilution method, S. aureus; assay type: cell-based; settings: Staphylococcus aureus, 29213; Gram-positive bacteria; in vitro, broth dilution; read-out: MIC S. aureus 29213
Procedure: as §1, §2

[4] = test system: S. pneumoniae 11733; experiment: MIC, broth dilution method, S. pneumoniae; assay type: cell-based; settings: Streptococcus pneumoniae, 11733; Gram-positive bacteria; in vitro, broth dilution; read-out: MIC S. pneumoniae 11733
Procedure: as §1, §2

melting point | SMILES | MIC [1] [µg/mL] | MIC [2] [µg/mL] | MIC [3] [µg/mL] | MIC [4] [µg/mL]
95 to 96 °C | Cc1ccc(Oc2ccc(-n3cccc3)cc2)c(O)c1 | – | – | – | –
143 to 145 °C | Cc1ccc(Oc2ccc(-c3ccsc3)cc2O)c(O)c1 | – | – | – | –
64 to 65 °C | N/C(=N\O)c1ccccc1Oc1ccc(F)cc1O | – | – | – | –
82 to 83 °C | CCOC(=O)c1nc(-c2ccccc2Oc2ccc(F)cc2O)no1 | – | – | – | –
127 to 128 °C | O=C(O)c1nc(-c2ccccc2Oc2ccc(F)cc2O)no1 | – | – | – | –
159 to 160 °C | Cc1ccc(Oc2ccc([N+](=O)[O-])cc2-c2ncon2)c(O)c1 | – | – | – | –
134 to 135 °C | COC(=O)C1CSC(c2ccc(Oc3ccc(C)cc3O)cc2)N1 (centres unmarked) | – | – | – | –
153 to 155 °C | COC(=O)c1cn(-c2ccccc2Oc2ccc(C)cc2O)nn1 | – | – | – | –
148 to 151 °C | COC(=O)c1cn(-c2ccc(Oc3ccc(C)cc3O)cc2)nn1 | – | – | – | –
118 to 119 °C | CCOC(=O)c1cnn(-c2ccccc2Oc2ccc(C)cc2O)c1 | – | – | – | –

Further lines, the compound ahead of its results:

SMILES | melting point | MIC [1] [µg/mL] | MIC [2] [µg/mL] | MIC [3] [µg/mL] | MIC [4] [µg/mL]
Cc1ccc(Oc2ccccc2/C(N)=N/O)c(O)c1 | 85 to 87 °C | – | – | – | –
Cc1ccc(Oc2ccccc2-c2noc(=O)[nH]2)c(O)c1 | 213 to 214 °C | – | – | – | –
Cc1ccc(Oc2ccc(-c3noc(=O)[nH]3)cc2)c(O)c1 | 195 to 198 °C | – | – | – | –
Oc1ccccc1Oc1ccc(-c2ccsc2)cc1O [Example 1, 2-(2-Hydroxy-phenoxy)-5-(thiophen-3-yl)-phenol] | 114 to 116 °C | 15.7 (≈ 55.2 µM) | 2 (≈ 7.03 µM) | 4 (≈ 14.1 µM) | 2 (≈ 7.03 µM)
Cc1ccc(Oc2ccc(-c3cccs3)cc2O)c(O)c1 [Example 3, 2-(2-Hydroxy-4-methyl-phenoxy)-5-(thiophen-2-yl)-phenol] | 91 to 92 °C | 15.7 (≈ 52.6 µM) | 4 (≈ 13.4 µM) | 4 (≈ 13.4 µM) | 1 (≈ 3.35 µM)
Cc1ccc(Oc2ccc(-c3ccco3)cc2O)c(O)c1 [Example 4, 2-(2-Hydroxy-4-methyl-phenoxy)-5-(furan-2-yl)-phenol] | – | 0.5 (≈ 1.77 µM) | 7.9 (≈ 28 µM) | 2 (≈ 7.08 µM) | 1 (≈ 3.54 µM)
Cc1ccc(Oc2ccc(C3NCCS3)cc2)c(O)c1 (centres unmarked) [Example 5, 5-Methyl-2-[4-(thiazolidin-2-yl)-phenoxy]-phenol] | 197 to 199 °C | 4 (≈ 13.9 µM) | 0.125 (≈ 0.435 µM) | 0.5 (≈ 1.74 µM) | 4 (≈ 13.9 µM)
Cc1ccc(Oc2ccc(C3NC(C(=O)O)CS3)cc2)c(O)c1 (centres unmarked) [Example 7, 2-[4-(2-Hydroxy-4-methyl-phenoxy)-phenyl]-thiazolidine-4-carboxylic acid] | 172 to 174 °C (dec.) | 4 (≈ 12.1 µM) | 1 (≈ 3.02 µM) | 0.25 (≈ 0.754 µM) | 1 (≈ 3.02 µM)
Oc1cc(F)ccc1Oc1ccc(-c2ccco2)cc1O [Example 12, 5-(Furan-2-yl)-2-(4-fluoro-2-hydroxy-phenoxy)-phenol] | – | 2 (≈ 6.99 µM) | 7.9 (≈ 27.6 µM) | 4 (≈ 14 µM) | 0.5 (≈ 1.75 µM)
